Paper PMC6540747 (The AAPS journal, 2017)

Tests used:
[1] = tested on: gut MPS and liver MPS on-platform; experiment: Drug and metabolite concentration-time profiles on the multi-MPS platform; type: in vitro ADME, human; details: Gut only arm
liver MPS cells = experiment: Liver MPS intracellular accumulation; type: in vitro ADME, human; details: 72h after dosing; Gut / Liver and Liver only arms
human hepacyte cultures = details: human hepatocyte cultures; cited from earlier work
[2] = Intrinsic metabolic clearance of the liver MPS on the multi-MPS platform; type: in vitro ADME, human; details: human
[3] = tested on: liver MPS (human primary cryopreserved hepatocytes and Kupffer cells); experiment: as above; type: in vitro ADME; details: posterior mean (SD)
[4] = fixed model parameter, same value in all arms; cited from earlier work
[5] = LiverChip technology; cited from earlier work

Compound	4-OH-DCF levels (mixing chamber concentration) ([1]; after 40 μM DCF dose) [µM]	intracellular accumulation in liver MPS (Kp, cells vs liver compartment medium) (liver MPS cells)	time at which concentration-time profiles reach a plateau ([1]; after the dose)	Clintl (human hepacyte cultures) [μL/min/10^6 cells]	hepatocyte CLint at 40 μM [2] [µL/min/1e6 cells]	CLintl (intrinsic metabolic DCF clearance of the liver MPS) ([3]; Gut / Liver arm, 40 μM DCF to gut apical side)	CLintl (intrinsic metabolic DCF clearance of the liver MPS) ([3]; Liver only arm, 40 μM DCF to mixing chamber)	fum (DCF fraction unbound in circulating common medium) [4]	non-specific binding to PSF [5]
O=C(O)Cc1ccccc1Nc1c(Cl)cc(O)cc1Cl [4-OH-DCF, 4-hydroxy-diclofenac]	< 0.05	substantial							
O=C(O)Cc1ccccc1Nc1c(Cl)cccc1Cl [DCF, diclofenac]		substantial	approximately 24 hours	17.8	17	10.18 (0.46) μL/min	8.99 (0.20) μL/min	0.13	absence of non-specific binding
